Source: patent publication US9682965B2, “Fumagillol heterocyclic compounds and methods of making and using same” (Zafgen, Inc., priority 2015, dated 2017)
Counter-ions that a name gives are not always drawn. Like-named read-outs stand apart in the source and are kept apart here.

Assays:
[1] = test system: Diet Induced Obese (DIO) C57BL/6 mice; assay: 10 day DIO mouse model (body weight, food intake, hematology, blood chemistry); assay type: in vivo; conditions: 240 h, DIO mouse, once a day for 10 days, read-out: DIO Mouse 10-day weight loss vs vehicle; for inhibition in vivo at 0.3 mg/kg: 0.3 mpk sc
Procedure, shortened: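 DIO C57BL/6 mice on 60% kcal fat diet received compounds subcutaneously once daily for 10 days at 1.0, 0.5, 0.3, 0.1 or 0.03 mpk, in 10% DMSO in water, after 3-day vehicle acclimation. Body weight and food intake were recorded daily. Hematology and blood chemistry were taken on Day 11, 24 h post-final dose.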

recombinant human MetAP2 = recombinant human MetAP2 (Homo sapiens (Human), UniProt P50579); assay: recombinant human MetAP2 enzyme inhibition assay; assay type: biochemical; conditions: recombinant human MetAP2, MAS peptide substrate, 25 minutes at 25° C
Chain of recombinant human MetAP2 (P50579 whole entry): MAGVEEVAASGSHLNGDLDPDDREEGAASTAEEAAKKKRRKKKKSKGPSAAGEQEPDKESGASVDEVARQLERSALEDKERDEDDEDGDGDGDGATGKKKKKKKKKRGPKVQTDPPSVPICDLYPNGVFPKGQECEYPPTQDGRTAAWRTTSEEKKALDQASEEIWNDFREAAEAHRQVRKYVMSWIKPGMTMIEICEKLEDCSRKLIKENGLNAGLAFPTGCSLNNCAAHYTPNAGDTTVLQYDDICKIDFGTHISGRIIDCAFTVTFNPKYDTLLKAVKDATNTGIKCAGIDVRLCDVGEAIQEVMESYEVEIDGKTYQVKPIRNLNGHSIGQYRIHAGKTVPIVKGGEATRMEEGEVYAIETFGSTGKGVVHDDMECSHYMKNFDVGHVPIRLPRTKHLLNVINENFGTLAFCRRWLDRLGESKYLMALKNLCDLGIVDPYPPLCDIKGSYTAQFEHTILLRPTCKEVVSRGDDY
Protocol: Compounds are tested for their capacity to inhibit recombinant human MetAP2 activity using the following assay.
Flag tagged Human recombinant MetAP2 expressed and isolated for use as the enzyme source. 10 mM stock solutions of compounds were prepared in 100% DMSO and further diluted in 100% DMSO required concentration to 1 mM stocks. The stock compound solutions and DMSO vehicle controls were diluted to target final compound concentrations using assay buffer to a final concentration of 50 mM HEPES containing 100 mM NaCl, pH adjusted to 7.5. The MAS peptide was formulated to a 7.5 mM stock in distilled water and prior to use further diluted 1:4. […] 40 μl of enzyme was mixed with 100 μl of MnCl2 then further diluted in assay buffer to a final concentration of 16 μg/ml. To test for compound effect on MetAP2 enzyme activity, 5 μl of test compound, 10 μl of MAS substrate/amino acid oxidase mixture, 10 μl of MetAP2 was added to test wells in a 384 well black plate with blank wells containing no enzyme, replaced with 10 μl of assay buffer. All compounds were tested in duplicate on two occasions on the same day.
The plate was sealed with a TopSeal A cover and mixed briefly on an orbital mixer at 900 rpm. The plate was incubated for a further 25 minutes at 25° C. A 5× stock of Amplex buffer was prepared (0.25M sodium phosphate, pH 7.4) and stored at 4° C. […] 25 μl detection reagent was added to each well of the test plate, which was re-sealed and mixed briefly on an orbital shaker.

[2] = test system: Male Sprague Dawley rats on high fat diet; assay: 11 day rat DIO model (body weight, food intake, hematology, blood chemistries); assay type: in vivo; conditions: 264 h, DIO rat, once a day for 11 days, read-out: DIO Rat 11-day weight loss vs vehicle; for inhibition in vivo at 0.3 mg/kg: 0.3 mpk sc; for inhibition in vivo at 1 mg/kg: 1.0 mpk sc
Excerpt: The objective of this study design is to investigate the efficacy of disclosed compounds in an 11 day rat DIO model used to screen compounds for pharmacologic efficacy on endpoints related to obesity and metabolism. Effects on body weight, food intake, hematology and blood chemistries were the primary readouts of this study design. […] Rats were fed Research Diets D12451 (45% High Fat) and provided water ad libitum. Rats were received and housed in the facility for at least two or three weeks prior to start of test article administration. On Day −4 or −3, rats were randomized into study groups based on body weight and body weights were continued to be recorded daily for the duration of the study. Daily food intake was assessed starting on Study Day −2 by weighing the hopper including the food to avoid loss of food in transfer.
Compounds were formulated into a 100% DMSO stock (at 9 mg/mL) prior to the start, and further diluted into the target working concentration using the vehicle of 10% DMSO in water. Prior to test article administration, starting on Day −3 a dosing acclimation occured with all animals receiving a subcutaneous injection of vehicle (10% DMSO) only for 3 days. Starting on Day 1, test compounds or vehicle were administered based on individual body weight, subcutaneously, once a day for 11 days. All animals were sacrificed on Day 11, approximately 2 hours following the final dosing on Day 11. After sacrifice, whole blood was collected and analyzed for hematology and blood chemistry parameters.
Compounds were tested vs. vehicle at various doses (1.0, 0.5, 0.3, 0.1, 0.03 mpk sc (mg per kg animal weight delivered subcutaneously), and the results are shown in Table 2 below.

Question: What does the source list for `CCN(CC)CCC1CCN(C(=O)O[C@@H]2CC[C@]3(CO3)[C@@H]([C@@]3(C)O[C@@H]3CC=C(C)C)[C@@H]2OC)C1` (stereo in doubt) [Example 56, (S)-(3R,4S,5S,6R)-5-methoxy-4-((2R,3R)-2-methyl-3-(3-methylbut-2-en-1-yl)oxiran-2-yl)-1-oxaspiro[2.5]octan-6-yl 3-(2-(diethylamino)ethyl)pyrrolidine-1-carboxylate]?
Answer: inhibition in vivo at 0.3 mg/kg [1]: 7.2%; IC50 (recombinant human MetAP2): < 50 nM

Question: Which results are given for `CO[C@@H]1[C@H](OC(=O)N2CC(CCN3CCCCC3)C2)CC[C@]2(CO2)[C@H]1[C@@]1(C)O[C@@H]1CC=C(C)C` [Example 4, (3R,4S,5S,6R)-5-methoxy-4-((2R,3R)-2-methyl-3-(3-methylbut-2-enyl)oxiran-2-yl)-1-oxaspiro[2.5]octan-6-yl 3-(2-(piperidin-1-yl)ethyl)azetidine-1-carboxylate formate]?
Answer: inhibition in vivo at 0.3 mg/kg [1]: 4.1%; IC50 (recombinant human MetAP2): < 50 nM

Question: Which results are given for `CO[C@@H]1[C@H](OC(=O)N2CC(CCN3CCC3)C2)CC[C@]2(CO2)[C@H]1[C@@]1(C)O[C@@H]1CC=C(C)C` [Example 5, (3R,4S,5S,6R)-5-methoxy-4-((2R,3R)-2-methyl-3-(3-methylbut-2-en-1-yl)oxiran-2-yl)-1-oxaspiro[2.5]octan-6-yl 3-(2-(azetidin-1-yl)ethyl)azetidine-1-carboxylate]?
Answer: inhibition in vivo at 0.3 mg/kg [1]: 4.3%; IC50 (recombinant human MetAP2): < 50 nM

Question: For `CO[C@@H]1[C@H](OC(=O)N2CC(CCN3CCC(O)CC3)C2)CC[C@]2(CO2)[C@H]1[C@@]1(C)O[C@@H]1CC=C(C)C` [Example 7, (3R,4S,5S,6R)-5-methoxy-4-((2R,3R)-2-methyl-3-(3-methylbut-2-en-1-yl)oxiran-2-yl)-1-oxaspiro[2.5]octan-6-yl 3-(2-(4-hydroxypiperidin-1-yl)ethyl)azetidine-1-carboxylate], which inhibition in vivo at 0.3 mg/kg ([1]; Mus musculus, sc) is on record?
Answer: 1.8%

Question: And the IC50 (recombinant human MetAP2)?
Answer: < 50 nM

Question: `CO[C@@H]1[C@H](OC(=O)N2CC(CCN3CCC(C)(O)CC3)C2)CC[C@]2(CO2)[C@H]1[C@@]1(C)O[C@@H]1CC=C(C)C` [Example 8, (3R,4S,5S,6R)-5-methoxy-4-((2R,3R)-2-methyl-3-(3-methylbut-2-enyl)oxiran-2-yl)-1-oxaspiro[2.5]octan-6-yl 3-(2-(4-hydroxy-4-methylpiperidin-1-yl)ethyl)azetidine-1-carboxylate] was tested. Which inhibition in vivo at 0.3 mg/kg [1] did it give?
Answer: 4.9%

Question: What about the inhibition in vivo at 1 mg/kg ([1]; 1.0 mpk sc) of the same compound?
Answer: 17.3%

Question: What about the IC50 (recombinant human MetAP2) of the same compound?
Answer: < 50 nM

Question: With `CO[C@@H]1[C@H](OC(=O)N2CC(CCN3CC4(COC4)C3)C2)CC[C@]2(CO2)[C@H]1[C@@]1(C)O[C@@H]1CC=C(C)C` [Example 16, (3R,4S,5S,6R)-5-methoxy-4-((2R,3R)-2-methyl-3-(3-methylbut-2-en-1-yl)oxiran-2-yl)-1-oxaspiro[2.5]octan-6-yl 3-(2-(2-oxa-6-azaspiro[3.3]heptan-6-yl)ethyl)azetidine-1-carboxylate] as the compound, how does the inhibition in vivo at 0.3 mg/kg [1] read?
Answer: 3.1%

Question: And the IC50 (recombinant human MetAP2)?
Answer: < 50 nM

Question: Which results are given for `CCN(CC)CCC1(O)CN(C(=O)O[C@@H]2CC[C@]3(CO3)[C@@H]([C@@]3(C)O[C@@H]3CC=C(C)C)[C@@H]2OC)C1` [Example 49, (3R,4S,5S,6R)-5-methoxy-4-((2R,3R)-2-methyl-3-(3-methylbut-2-enyl)oxiran-2-yl)-1-oxaspiro[2.5]octan-6-yl 3-(2-(diethylamino)ethyl)-3-hydroxyazetidine-1-carboxylate]?
Answer: inhibition in vivo at 0.3 mg/kg [1]: 4.1%; IC50 (recombinant human MetAP2): < 50 nM

Question: For `CCN(CC)CCCC1(O)CN(C(=O)O[C@@H]2CC[C@]3(CO3)[C@@H]([C@@]3(C)O[C@@H]3CC=C(C)C)[C@@H]2OC)C1` [Example 61, (3R,4S,5S,6R)-5-methoxy-4-((2R,3R)-2-methyl-3-(3-methylbut-2-enyl)oxiran-2-yl)-1-oxaspiro[2.5]octan-6-yl 3-(3-(diethylamino)propyl)-3-hydroxyazetidine-1-carboxylate], which IC50 (recombinant human MetAP2) is on record?
Answer: < 50 nM

Question: Which inhibition in vivo at 0.3 mg/kg [1] does the source give for `CO[C@@H]1[C@H](OC(=O)N2CC(CC(=O)N3CCOCC3)C2)CC[C@]2(CO2)[C@H]1[C@@]1(C)O[C@@H]1CC=C(C)C` [Example 62, (3R,4S,5S,6R)-5-methoxy-4-((2R,3R)-2-methyl-3-(3-methylbut-2-enyl)oxiran-2-yl)-1-oxaspiro[2.5]octan-6-yl 3-(2-morpholino-2-oxoethyl)azetidine-1-carboxylate formate] here?
Answer: 7.4%

Question: And the IC50 (recombinant human MetAP2)?
Answer: < 50 nM

Question: How did the inhibition in vivo at 0.3 mg/kg [1] turn out when `CNC(=O)CC1CN(C(=O)O[C@@H]2CC[C@]3(CO3)[C@@H]([C@@]3(C)O[C@@H]3CC=C(C)C)[C@@H]2OC)C1` [Example 63, (3R,4S,5S,6R)-5-methoxy-4-((2R,3R)-2-methyl-3-(3-methylbut-2-enyl)oxiran-2-yl)-1-oxaspiro[2.5]octan-6-yl 3-(2-(methylamino)-2-oxoethyl)azetidine-1-carboxylate] was run?
Answer: 0.5%

Question: What about the IC50 (recombinant human MetAP2) of the same compound?
Answer: < 50 nM

Question: How did the inhibition in vivo at 0.3 mg/kg [1] turn out when `CO[C@@H]1[C@H](OC(=O)N2CC(CC(N)=O)C2)CC[C@]2(CO2)[C@H]1[C@@]1(C)O[C@@H]1CC=C(C)C` [Example 65, (3R,4S,5S,6R)-5-methoxy-4-((2R,3R)-2-methyl-3-(3-methylbut-2-enyl)oxiran-2-yl)-1-oxaspiro[2.5]octan-6-yl 3-(2-amino-2-oxoethyl)azetidine-1-carboxylate] was run?
Answer: 2.6%

Question: What about the IC50 (recombinant human MetAP2) of the same compound?
Answer: < 50 nM

Question: With `CCN(CC)CCNC(=O)CC1CN(C(=O)O[C@@H]2CC[C@]3(CO3)[C@@H]([C@@]3(C)O[C@@H]3CC=C(C)C)[C@@H]2OC)C1` [Example 66, (3R,4S,5S,6R)-5-methoxy-4-((2R,3R)-2-methyl-3-(3-methylbut-2-enyl)oxiran-2-yl)-1-oxaspiro[2.5]octan-6-yl 3-(2-(2-(diethylamino)ethylamino)-2-oxoethyl)azetidine-1-carboxylate] as the compound, how does the inhibition in vivo at 0.3 mg/kg [1] read?
Answer: 7.6%

Question: And the IC50 (recombinant human MetAP2)?
Answer: < 50 nM

Question: Which results are given for `CCN(CC)CCC1CCN1C(=O)O[C@@H]1CC[C@]2(CO2)[C@@H]([C@@]2(C)O[C@@H]2CC=C(C)C)[C@@H]1OC` (stereo partly drawn) [Example 106, (3R,4S,5S,6R)-5-methoxy-4-((2R,3R)-2-methyl-3-(3-methylbut-2-enyl)oxiran-2-yl)-1-oxaspiro[2.5]octan-6-yl 2-(2-(diethylamino)ethyl)azetidine-1-carboxylate]?
Answer: inhibition in vivo at 0.1 mg/kg ([1]; Mus musculus, sc, 0.1 mpk sc): 2%; inhibition in vivo at 0.5 mg/kg ([2]; 0.5 mpk sc): 4.82%

Question: What does the source list for `CO[C@@H]1[C@H](OC(=O)N2CC(CCN3CC(F)(F)C3)C2)CC[C@]2(CO2)[C@H]1[C@@]1(C)O[C@@H]1CCC(C)C` [Example 126, (3R,4S,5S,6R)-4-((2R,3R)-3-isopentyl-2-methyloxiran-2-yl)-5-methoxy-1-oxaspiro[2.5]octan-6-yl3-(2-(3,3-difluoroazetidin-1-yl)ethyl)azetidine-1-carboxylate]?
Answer: inhibition in vivo at 0.3 mg/kg [1]: 13.2%; inhibition in vivo at 0.3 mg/kg [2]: 7.4%; inhibition in vivo at 1 mg/kg [2]: 9.1%

Question: Which results are given for `CO[C@@H]1[C@H](OC(=O)N2CC(CCN3CCOCC3)C2)CC[C@]2(CO2)[C@H]1[C@@]1(C)O[C@@H]1CCC(C)C` [Example 127, (3R,4S,5S,6R)-4-((2R,3R)-3-isopentyl-2-methyloxiran-2-yl)-5-methoxy-1-oxaspiro[2.5]octan-6-yl 3-(2-morpholinoethyl)azetidine-1-carboxylate]?
Answer: inhibition in vivo at 0.3 mg/kg [1]: 15.2%; inhibition in vivo at 0.3 mg/kg [2]: 6.1%; inhibition in vivo at 1 mg/kg [2]: 10.7%
